From the supplement of paper PMC10790783

system: MRC5-hT fibroblasts expressing HCMV UL38 (glucose-free medium); assay: rescue of cell number (AUC of dose-response) relative to untreated glucose-free control; higher = stronger protection from glucose-starvation-induced cell death; conditions: glucose: 0 (glucose-free DMEM); 96 h; dose range 0.001-20, 10-point curve µM
Experimental: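 MRC5-hT fibroblasts stably expressing HCMV UL38 were seeded in 384-well plates, serum-starved for 24 h, switched to glucose-free DMEM, and pin-transferred with a metabolism-focused compound library as 10-point dose curves (1 nM to 20 µM; n=2). Nuclei were counted by Hoechst imaging 96 h after glucose withdrawal.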

| Compound | rescue of cell number [%] |
| --- | --- |
| CC(C)c1cc(C(C)C)c(CC(=O)NS(=O)(=O)Oc2c(C(C)C)cccc2C(C)C)c(C(C)C)c1 [Avasimibe] | 7.22 |
| CC(C)C[C@@H](C(=O)N[C@H](C(=O)OC1CCCC1)c1ccccc1)[C@H](O)C(=O)NO [CHR_2797] | -14.9 |
| Nc1ncnc2c1C(=O)N(c1ccc([C@H]3CC[C@H](CC(=O)O)CC3)cc1)CCO2 | -20.9 |
| Cc1cc(=O)oc2c(C=O)c(O)ccc12 [4mu8C] | 23.6 |
| COC(=O)c1ccc([C@H]2c3[nH]c4ccccc4c3C[C@H](C(=O)OC)N2C(=O)CCl)cc1 [1S,3R-RSL3] | 35.2 |
| N[C@H](C(=O)O)[C@@H]1CC(Cl)=NO1 [Acivicin] | -32.4 |
| C/C=C/C/C=C/CCC(=O)[C@H]1O[C@H]1C(N)=O [Cerulenin] | 34.9 |
| O=C(O)CSc1nnc(Br)n1-c1ccc(C2CC2)c2ccccc12 [Lesinurad] | -28.1 |
| O=C(Nc1cccc(C(F)(F)F)c1)Nc1cc(S(=O)(=O)NC2CC2)ccc1-c1ccsc1 [AGI_6780] | -23.4 |
| OCCN(CCO)c1nc(N2CCCCC2)c2nc(N(CCO)CCO)nc(N3CCCCC3)c2n1 [Dipyridamole] | 141 |
| CCOC(=O)[C@@H](N)CCC(=O)N[C@@H](CSCc1ccccc1)C(=O)N[C@@H](C(=O)OCC)c1ccccc1 [Telintra] | 16.7 |
| Cc1cc(C)nc(NC(=S)N2CCN(Cc3ccc(C(F)(F)F)cc3)CC2)c1 [NCT-503] | -9.82 |
| Cc1nc2ccc(C(=O)N3CCC4(CC3)CC(=O)c3c(cnn3C(C)C)C4)cc2[nH]1 | 31.8 |
| [N-]=[N+]=[N-] [Sodium_Azide] | -38.1 |
| Cc1oncc1C(=O)Nc1ccc(C(F)(F)F)cc1 [Leflunomide] | 9.81 |
| CC1(C)CCC2=C(O1)c1ccccc1C(=O)C2=O [beta_Lapachone] | 70.8 |
| CN(Cc1cnc2nc(N)nc(N)c2n1)c1ccc(C(=O)N[C@@H](CCC(=O)O)C(=O)O)cc1 [Methotrexate] | -33.3 |
| CN(N=O)C(=O)N[C@@H](C=O)[C@@H](O)[C@H](O)[C@H](O)CO [Streptozocin] | 33.4 |
| O=C(O)Cc1ccccc1Nc1c(Cl)cccc1Cl [Diclofenac] | -20 |
| CC[C@H](C)C(=O)O[C@H]1C[C@H](O)C=C2C=C[C@H](C)[C@H](CC[C@@H](O)C[C@@H](O)CC(=O)O)[C@H]21 [Pravastatin] | -35.3 |
| COc1cc2c(cc1O)CC[C@@H]1[C@@H]2CC[C@]2(C)[C@@H](O)CC[C@@H]12 [2_Methoxyestradiol] | 22.8 |
| Cc1ccccc1C(C(=O)NC1CCCCC1)N(C(=O)Cn1ccnc1C)c1cccc(F)c1 (stereo not given) [AGI_5198] | 48.3 |
| O=C(O)CN1C(=O)c2cccc3cccc(c23)C1=O [Alrestatin] | 4.91 |
| Cc1ccc([C@@H]2O[C@H](CO)[C@@H](O)[C@H](O)[C@H]2O)cc1Cc1ccc(-c2ccc(F)cc2)s1 [Canagliflozin] | 108 |
| Cc1nccn1-c1ccc(Sc2cccc(C3(C(N)=O)CCOCC3)c2)cc1 | 13 |
| O[C@H]1[C@H](O)[C@@H](O)CN2CC[C@H](O)[C@H]12 [Castanospermine] | -30.6 |
| N#Cc1cn([C@@H]2O[C@H](CO)[C@@H](O)[C@H]2O)c2ncnc(N)c12 [Toyocamycin] | 9.71 |

| Compound | rescue of cell number [%] |
| --- | --- |
| CN(C)C(=N)NC(=N)N [Metformin] | -36.3 |
| NCCOCCOCCNC(=O)Cc1ccc(Nc2nc(NCc3ccc(F)cc3)nc(NCC3CCCCC3)n2)cc1 [AP-III-a4] | 33.4 |
| O=C(Cc1cccc(OC(F)(F)F)c1)Nc1ccc(CCCCc2nnc(NC(=O)Cc3ccccn3)s2)nn1 [CB-839] | 38.5 |
| CNc1ccc(C(=O)Oc2cc(O/N=[N+](\[O-])N(C)C)c([N+](=O)[O-])cc2[N+](=O)[O-])cc1 [PABA_NO] | -16.1 |
| Cc1cc2c(C(C)C)c(O)c(O)c(C=O)c2c(O)c1-c1c(C)cc2c(C(C)C)c(O)c(O)c(C=O)c2c1O [Gossypol] | 43.9 |
| CCCC(CCC)C(=O)O [Valproic_acid] | -34 |
| Cc1onc(C(=O)N2CCN(C(c3ccc(Cl)cc3)c3ccc(Cl)cc3)CC2)c1[N+](=O)[O-] [ML-210] | -2.73 |
| OC[C@H]1O[C@@H](c2ccc(F)c(Cc3cc4ccccc4s3)c2)[C@H](O)[C@@H](O)[C@@H]1O [Ipragliflozin] | -33.8 |
| CN(CCOc1ccc(CC2SC(=O)NC2=O)cc1)c1ccccn1 (stereo not given) [Rosiglitazone] | 4.26 |
| Nc1nc(Cl)nc2c1ncn2[C@H]1C[C@H](O)[C@@H](CO)O1 [Cladribine] | -12.9 |
| COc1ccc(N(C(=O)CCl)C(C(=O)NCCc2ccccc2)c2cccs2)cc1Cl (stereo not given) [ML-162] | 15.3 |
| CCc1ccc(CCOc2ccc(CC3SC(=O)NC3=O)cc2)nc1 (stereo not given) [Pioglitazone] | 69 |
| COc1ccccc1OCC(O)CN1CCN(CC(=O)Nc2c(C)cccc2C)CC1 (stereo not given) [Ranolazine] | -35.4 |
| CC1=C(CC(=O)O)c2cc(F)ccc2/C1=C\c1ccc([S+](C)[O-])cc1 (stereo not given) [Sulindac] | -22.1 |
| CC(=O)c1ccc2c(c1)Nc1ccccc1S2 [ML_171] | 23 |
| CC(C)(C(=O)c1cccnc1)c1cccnc1 [Metyrapone] | 87.6 |
| Cc1nc(-c2ccc(OCC(C)C)c(C#N)c2)sc1C(=O)O [Febuxostat] | 73.9 |
| Nc1nc(F)nc2c1ncn2[C@@H]1O[C@H](CO)[C@@H](O)[C@@H]1O [Fludarabine] | 103 |
| COc1cccc2c(NCc3ccccc3)nc(-n3c(N)nc4ccccc43)nc12 [ML_240] | 50.1 |
| O=c1oc2ccccc2c(O)c1Cc1c(O)c2ccccc2oc1=O [Dicoumarol] | -17.7 |
| O=S(=O)(O)CCSSCCS(=O)(=O)O [Dimesna] | -37.8 |
| C=CCN(C)CCCCCCOc1ccc(C(=O)c2ccc(Br)cc2)c(F)c1 [Ro_48_8071] | -2.22 |
| Cc1ccc(-c2cc(C(F)(F)F)nn2-c2ccc(S(N)(=O)=O)cc2)cc1 [Celecoxib] | 68.1 |
| CCc1c(-c2ccccc2)c(-c2ccccc2)nn1-c1ccccc1-c1cccc(OCC(=O)O)c1 | -14.6 |
| CC(=O)N[C@H]1[C@@H](O[C@@H]2O[C@H](CC(O)[C@H]3O[C@@H](n4ccc(=O)[nH]c4=O)[C@H](O)[C@@H]3O)[C@H](O)[C@H](O)[C@H]2NC(=O)/C=C/CC(C)C)O[C@H](CO)[C@@H](N)[C@@H]1O (stereo not given in full) [Tunicamycin] | 3.6 |
| CC(=O)NC(CSC(=S)Nc1ccc(NC(=S)SCC(NC(C)=O)C(=O)O)cc1)C(=O)O (stereo not given) [2-AAPA hydrate] | -9.91 |
| C=CCNC1=C2C[C@@H](C)C[C@H](OC)[C@H](O)[C@@H](C)/C=C(\C)[C@H](OC(N)=O)[C@@H](OC)/C=C\C=C(/C)C(=O)NC(=CC1=O)C2=O [17_AAG] | 54.1 |

| Compound | rescue of cell number [%] |
| --- | --- |
| COc1c(C)c2c(c(O)c1C/C=C(\C)CCC(=O)O)C(=O)OC2 [Mycophenolic_Acid] | 51.6 |
| Cc1ccc(-c2c(-c3nn(C)c4ncnc(N5CC[C@H](N6CCCCC6)C5)c34)cnn2C)cc1 | 45.6 |
| Cc1ccccc1C(C(=O)NC1CCCC1)N(C(=O)Cn1cnc2ccccc21)c1cccc(F)c1 (stereo not given) [ML309] | 94.6 |
| OCC(CO)N[C@H]1C[C@](O)(CO)[C@@H](O)[C@H](O)[C@H]1O [Voglibose] | -36.2 |
| C[C@@H]1CC[C@H]2[C@@H](C)C(=O)O[C@@H]3O[C@@]4(C)CC[C@@H]1[C@]32OO4 [Artemisinin] | 15.9 |
| Cc1ccc(C(=O)c2cc(O)c(O)c([N+](=O)[O-])c2)cc1 [Tolcapone] | 37.3 |
| CCCCC/C=C/C(=O)CCc1ccc(O)c(OC)c1 [Shogaol] | -6.33 |
| CN1Cc2c(N)cccc2C(c2ccccc2)C1 (stereo not given) [Nomifensine] | -5.61 |
| Oc1cc(Cl)ccc1Oc1ccc(Cl)cc1Cl [Triclosan] | 5.01 |
| CC[n+]1c(-c2ccccc2)c2cc(N)ccc2c2ccc(N)cc21 [Ethidium_Bromide] | 97.6 |
| CCCCN1C[C@H](O)[C@@H](O)[C@H](O)[C@H]1CO [Miglustat] | 5.72 |
| O=C(Oc1ccc([N+](=O)[O-])cc1)N1CCC(C(O)(c2ccc3c(c2)OCO3)c2ccc3c(c2)OCO3)CC1 [JZL184] | 136 |
| COc1cc(O)c2c(c1)C(=O)c1cc(C)cc(O)c1C2=O [Physcion] | -37.6 |
| CC/C=C\C[C@H]1C(=O)CC[C@@H]1CC(=O)O [Jasmonate] | -19.1 |
| NCCCNCCSP(=O)(O)O [Amifostine] | 110 |
| O=C(O)C(=O)CBr [Bromopyruvic_acid] | 134 |
| O=C(O)c1cc(/N=N/c2ccc(S(=O)(=O)Nc3ccccn3)cc2)ccc1O [Sulfasalazine] | 87.4 |
| O=c1c2ccccc2[se]n1-c1ccccc1 [Ebselen] | -18.8 |
| CC(=O)OC[C@H]1O[C@@H]([S-])[C@H](OC(C)=O)[C@@H](OC(C)=O)[C@@H]1OC(C)=O.CCP(CC)CC.[Au+] [Auranofin] | -0.594 |
| O=C(NNc1ccccc1)c1ccncc1 [PluriSln_1] | 41.4 |
| CCOC(=O)N1c2ccc(C(F)(F)F)cc2[C@@H](N(Cc2cc(C(F)(F)F)cc(C(F)(F)F)c2)C(=O)OC)C[C@H]1CC [Torcetrapib] | -13.1 |
| Cc1cccc(CN2CCN(C(c3ccccc3)c3ccc(Cl)cc3)CC2)c1 (stereo not given) [Meclizine] | 31.4 |
| OCCN1C[C@H](O)[C@@H](O)[C@H](O)[C@H]1CO [Miglitol] | -37.1 |
| CC1=C(/C=C/C(C)=C/C=C/C(C)=C\C(=O)O)C(C)(C)CCC1 [Isotretinoin] | 128 |
| Cc1cc(/C=C/c2ccc3cc(N(C)C)ccc3[n+]2C)c(C)n1-c1ccccc1 [Pyrvinium_pamoate] | 5.84 |
| Cc1ccc(-c2cc(=O)c3ccc4ccccc4c3o2)cc1 | 155 |
